Experimental data reported in patent publication US20180050018A1, “PERIPHERAL-ANTICHOLINERGIC MUSCARINIC AGONIST COMBINATION” (Chase Pharmaceuticals Corporation, priority 2015, published 2018).
One block for each compound: values may come before it.

Legend:
Male Swiss mice [1] = assay: T-maze continuous alternation task (T-CAT) in mice; format: in vivo
From the text: Evaluation of Cognition with Oxybutynin and Xanomeline in the T-maze Alternation Task in Mice The T-maze continuous alternation task (T-CAT) is useful as model for studying compounds with cognitive enhancing properties. The T-maze consists of 2 choice arms and 1 start arm mounted to a square center. Manual doors are provided to close specific arms during the force choice alternation task. Male Swiss mice (4-6 weeks old), N=10 per treatment group were used, and were pre-treated with: • Oxybutynin at the dose that blocked fecal pellet excretion in Study 2 of Example 1. […] Mice were randomly assigned to one of the different experimental treatment groups. Each animal was identified by its group name, cage number, series (day) of experiment, and number (1 to 10) written with permanent ink on the tail. The T-maze apparatus is made of gray Plexiglas with a main stem (55 cm long×10 cm wide×20 cm high) and two arms (30 cm long×10 cm wide×20 cm high) positioned at 90 degree angle relative to the main stem. A start box (15 cm long×10 cm wide) is separated from the main stem by a guillotine door. Horizontal doors are also provided to close specific arms during the force choice alternation task.
The experimental protocol consisted of one single session, which started with 1 “forced-choice” trial, followed by 14 “free-choice” trials. In the first “forced-choice” trial, animals were confined for 5 seconds to the start arm and then were released while either the left or the right goal arm was blocked by the horizontal door. Animals then negotiated the maze, eventually entering the open goal arm, and returned to the start position. […]
The apparatus was cleaned between each animal using 40% ethanol. […] The percentage of alternation over the 14 free-choice trials was determined for each mouse and was used as an index of working memory performance. […] The drug-induced improvement of memory was calculated by setting the respective response of the saline/vehicle as 100% and that of the test group as 0% reversion. […]

[2] = oral and iontophoretic patch administration, with oxadiazole muscarinic agonists; cited from earlier work
Male Swiss mice [3] = assay: Antagonism of xanomeline-induced diarrhea in mice by oxybutynin (fecal pellet count); format: in vivo; details: oxybutynin i.p. 0.3 to 30 mg/kg, 30 minutes before xanomeline 30 mg/kg
Procedure: Male Swiss mice (4-6 weeks old), N=10 per treatment group were used. Animals were pretreated with i.p. oxybutynin (a representative peripheral muscarinic receptor antagonist) or vehicle; 30 minutes later animals were treated with xanomeline at a dose of 30 mg/kg that caused diarrhea (as determined in Experiment 1). The dose of oxybutynin ordinarily ranged from 0.3 to 30 mg/kg. Mice were placed individually in cages without any bedding materials. During the experiment the number of fecal pellets was counted at different time-points as outlined below: • T-1h to T0: counting of the accumulated fecal pellets excreted, • T0: administration of oxybutinin. • T30 min: administration of vehicle or xanomeline. • T 30 min to T 2.5 h: counting of accumulated fecal pellets excreted. • T+2.5 h to T+4.5 h: counting of accumulated fecal pellets excreted. The total number of fecal pellets for each mouse was counted over time. An analysis of variance (ANOVA) was performed on the results. Fisher's Protected Least Significant Difference was used for pairwise comparisons. The p value ≦0.05 were considered significant. Grubbs' test (http (hypertext transfer protocol) www at graphpad.com/quickcalcs/Grubbs1.cfm) was used to detect outliers for each parameter in each experimental group.

[4] = cited from earlier work
[5] = system: patients with Alzheimer disease; details: cited from earlier work
Male Swiss mice [6] = assay: Dose-response to xanomeline in a mouse model of diarrhea (fecal pellet count); format: in vivo; details: xanomeline i.p. 0.3 to 30 mg/kg
From the text: Male Swiss mice (4-6 weeks old), N=10 per treatment group were used, and treated intra-peritoneally (i.p.) with either vehicle (vehicle group) or increasing doses of xanomeline, a representative muscarinic agonist. Mice were randomly assigned to one of two experimental groups (vehicle; or increasing doses of xanomeline). Each animal was identified by its group name, cage number, series (day) of experiment, and number (1 to 10) written with permanent ink on the tail. Mice were placed individually in cages without any bedding materials. During the experiment the number of fecal pellets were counted at different time-points, starting one hour before the time of the administration of the test compound (TO), as outlined below: • T-1 h to T0: counting of the accumulated fecal pellets excreted. • T0: administration of the test compound, • T0 to T+2 h: counting of the accumulated fecal pellets excreted, • T+2 h to T+4 h: counting of the accumulated fecal pellets excreted, The total number of fecal pellets for each mouse was counted over time. An analysis of variance (ANOVA) was performed on the results. Fisher's Protected Least Significant Difference was used for pairwise comparisons; p values <0.05 were considered significant. Grubbs' test (http (hypertext transfer protocol) www at graphpad.com/quickcalcs/Grubbs1.cfm) was used to detect outliers for each parameter in each experimental group.

rats and monkeys = rats and monkeys (Schwarz 1999); cited from earlier work

SMILES: CCN(CC)CC#CCOC(=O)C(O)(c1ccccc1)C1CCCCC1 (stereo not shown) [oxybutynin]
ability to perform the T-maze test after pretreatment (Male Swiss mice [1]; i.p. oxybutynin pretreatment 30 minutes before xanomeline): restored the animals' ability to perform the T-maze test
effectiveness relative to the other muscarinic antagonists [2]: less effective than the other muscarinic antagonists
antagonism of xanomeline-induced diarrhea (Male Swiss mice [3]): dose-dependently antagonized the diarrhea induced by xanomeline

SMILES: O=C(O[C@H]1C[C@H]2CC[C@@H](C1)[N+]21CCCC1)C(O)(c1ccccc1)c1ccccc1 [trospium chloride, Azoniaspiro [3β-benziloyloxy-(1α,5α)-nortropane-8,1′-pyrrolidine] chloride]
average plasma half-life ([4]; absorbed amount): about 18 hours

diarrhea (number of fecal pellets excreted) (Male Swiss mice [6]): dose-dependently causes diarrhea
SMILES: CCCCCCOc1nsnc1C1=CCCN(C)C1 [xanomeline, 3-(4-hexyloxy-1,2,5-thiadiazol-3-yl)-1-methyl-5,6-dihydro-2H-pyridine]
ability to perform the T-maze test at the higher dose (Male Swiss mice [1]; i.p. xanomeline, higher dose (dose that caused diarrhea)): animals were too sick to perform the test
performance in the T-maze (percentage of alternation, working memory) (Male Swiss mice [1]; i.p. xanomeline, mice): dose-dependent increase in performance in the T-maze
cognitive and behavioral symptoms compared to placebo ([5]; 6-month trial in Alzheimer disease patients (Bodick et al, 1997)): significantly improve cognitive and behavioral symptoms of Alzheimer disease
discontinuation rate due to side effects ([5]; Alzheimer's patient population (Mirza et al. 2003)): higher than 50%
side effects ([5]; bradycardia, gastro-intestinal distress, excessive salivation, sweating, Alzheimer disease patients): dose-dependent unacceptable side effects

SMILES: NC(=O)C(c1ccccc1)(c1ccccc1)[C@@H]1CCN(CCc2ccc3c(c2)CCO3)C1 [darifenacin]
effectiveness relative to the other muscarinic antagonists [2]: less effective than the other muscarinic antagonists

SMILES: CO/N=C/C1=CCCN(C)C1 [milameline, (E)-N-methoxy-1-(1-methyl-1,2,5,6-tetrahydropyridin-3-yl)methanimine]
doses producing central cholinergic action relative to doses stimulating peripheral cholinergic receptors (rats and monkeys): doses slightly lower than those stimulating peripheral cholinergic receptors

SMILES: O=C(O[C@H]1CN2CCC1CC2)N1CCc2ccccc2[C@@H]1c1ccccc1 [solifenacin succinate, (1S)-(3R)-1-azabicyclo [2.2.2] oct-3-yl 3,4-dihydro-1-phenyl-2(1H)-iso-quinolinecarboxylate]
half-life (in words) ([4]; in vivo): long half-life
